This is an account of results in patent US20190127366A1 (LifeSci Pharmaceuticals, Inc., priority 2015, published 2019).

In the test the target is T1, human complement factor D (Homo sapiens, UniProt P00746).
T1 construct: purchased R&D Systems 1824-SE
T1 sequence (P00746 26-253): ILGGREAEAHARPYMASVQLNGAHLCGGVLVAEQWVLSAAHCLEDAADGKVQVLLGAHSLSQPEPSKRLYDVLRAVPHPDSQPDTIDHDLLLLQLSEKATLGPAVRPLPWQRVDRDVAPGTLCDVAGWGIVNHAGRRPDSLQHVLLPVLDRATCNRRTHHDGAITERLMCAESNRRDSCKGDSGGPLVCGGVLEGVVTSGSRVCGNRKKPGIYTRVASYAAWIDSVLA
The test is described as follows: In vitro enzyme inhibition (Z-Lys-SBzl/DTNB absorbance assay). The class given is biochemical. To be noted: Complement Factor D (R&D Systems), substrate Z-Lys-SBzl, A405 nm; read-out: CFD IC50. Summed up:
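Factor D (6.25 ng/μL before addition) preincubated 5 min RT with compound (8 points from 50 μM, 6-fold, 0.5% DMSO final) in 50 mM Tris/HCl pH 7.5, 1 M NaCl, then Z-Lys-SBzl/DTNB added (200 μM each before addition). A405 read kinetically every 30 s for 60 min; IC50 from variable-slope fit, controls with and without enzyme.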
Consider `NCC(NC(=O)[C@@H]1[C@H]2CC[C@H](C2)N1C(=O)Cn1nc(C(N)=O)c2ccccc21)c1cccc(Cl)c1F` (stereo partly drawn) [Example 140, 1-(2-((1R,3S,4S)-3-((2-amino-1-(3-chloro-2-fluorophenyl)ethyl)carbamoyl)-2-azabicyclo[2.2.1]heptan-2-yl)-2-oxoethyl)-1H-indazole-3-carboxamide], for which the IC50 (as a rule, the concentration needed to halve the response being measured) is over 10000 nM.

As to `NC(=O)c1nn(CC(=O)N2[C@@H]3CC[C@@H](C3)[C@H]2C(=O)NC(C(=O)O)c2cccc(Cl)c2F)c2ccccc12` (stereo partly drawn) [Example 137, 2-((1R,3S,4S)-2-(2-(3-carbamoyl-1H-indazol-1-yl)acetyl)-2-azabicyclo[2.2.1]heptane-3-carboxamido)-2-(3-chloro-2-fluorophenyl)acetic acid], the IC50 was 1000 to 10000 nM.

For the compound `NCCC(NC(=O)[C@@H]1[C@H]2CC[C@H](C2)N1C(=O)Cn1nc(C(N)=O)c2ccccc21)c1cccc(Cl)c1F` (stereo partly drawn) [Example 145, 1-(2-((1R,3S,4S)-3-((3-amino-1-(3-chloro-2-fluorophenyl)propyl)carbamoyl)-2-azabicyclo[2.2.1]heptan-2-yl)-2-oxoethyl)-1H-indazole-3-carboxamide], the IC50 lay in the range of 1000 to 10000 nM.

For the compound `NC(=O)c1ccc(Cl)c(F)c1CNC(=O)[C@@H]1[C@H]2CC[C@H](C2)N1C(=O)Cn1nc(C(N)=O)c2ccccc21` [Example 118, 1-(2-((1R,3S,4S)-3-((6-carbamoyl-3-chloro-2-fluorobenzyl)carbamoyl)-2-azabicyclo[2.2.1]heptan-2-yl)-2-oxoethyl)-1H-indazole-3-carboxamide], the IC50 was in the range of 1000 to 10000 nM.

Consider `O=C(O)c1nn(CC(=O)N2[C@@H]3CC[C@@H](C3)[C@H]2C(=O)Nc2cccc(Cl)n2)c2ccccc12` [Example 84, 1-(2-((1R,3S,4S)-3-((6-chloropyridin-2-yl)carbamoyl)-2-azabicyclo[2.2.1]heptan-2-yl)-2-oxoethyl)-1H-indazole-3-carboxylic acid], for which the IC50 was over 10000 nM.

Consider `NC(=O)c1ccc2c(c1)c(C(N)=O)nn2CC(=O)N1[C@@H]2CC[C@@H](C2)[C@H]1C(=O)Nc1cccc(Cl)n1` [Example 121, 1-(2-((1R,3S,4S)-3-((6-chloropyridin-2-yl)carbamoyl)-2-azabicyclo[2.2.1]heptan-2-yl)-2-oxoethyl)-1H-indazole-3,5-dicarboxamide], for which the IC50 fell in the range of 100 to 1000 nM.

Turning to `NC(=O)c1nn(CC(=O)N2[C@@H]3CCC(C3)[C@H]2C(=O)Nc2cccc(Cl)n2)c2ccc(Cl)cc12` [Example 12, 5-chloro-1-(2-((1R,3S)-3-((6-chloropyridin-2-yl)carbamoyl)-2-azabicyclo[2.2.1]heptan-2-yl)-2-oxoethyl)-1H-indazole-3-carboxamide], the IC50 lay within 1000 to 10000 nM.

Turning to `NC(=O)c1nn(CC(=O)N2[C@@H]3CC[C@@H](C3)[C@H]2C(=O)Nc2cccc(C(F)(F)F)n2)c2ccccc12` [Example 8, 1-(2-oxo-2-((1R,3S,4S)-3-((6-(trifluoromethyl)pyridin-2-yl)carbamoyl)-2-azabicyclo[2.2.1]heptan-2-yl)ethyl)-1H-indazole-3-carboxamide], the IC50 was 1000 to 10000 nM.

With `NC(=O)c1nn(CC(=O)N2CCCC[C@H]2C(=O)Nc2cccc(Br)n2)c2ccccc12` [Example 20, (S)-1-(2-(2-((6-bromopyridin-2-yl)carbamoyl)piperidin-1-yl)-2-oxoethyl)-1H-indazole-3-carboxamide], the IC50 was in the range of 100 to 1000 nM.

In the case of `COc1cccc(NC(=O)[C@@H]2[C@H]3CC[C@H](C3)N2C(=O)Cn2nc(C(N)=O)c3ccccc32)n1` [Example 50, 1-(2-((1R,3S,4S)-3-((6-methoxypyridin-2-yl)carbamoyl)-2-azabicyclo[2.2.1]heptan-2-yl)-2-oxoethyl)-1H-indazole-3-carboxamide], the IC50 was in the range of 1000 to 10000 nM.
